Common to all, as to type: cell-based, human
The test system of assay [1] is WBP2. Kind of assay: Estrogen/progesterone-induced WBP2 tyrosine phosphorylation in MCF7 (IP/IB). Conditions: 10 nM E2 or 100 nM P4 for 24 hr, 10 μM Iressa pre-treatment for 1 hr.
Protocol: A: Serum-starved cells were stimulated with 50 ng/ml EGF (E) for 5 min or hormone-stripped cells were stimulated with 10 nM Estrogen (E2) or 100 nM Progesterone (P4) for 24 hr with/without 10 μM Iressa (Ir) pre-treatment for 1 hr. Whole cell lysates were used for IP/IB analysis with antibodies indicated. […] D: Serum-starved MCF7 were stimulated with 50 ng/ml EGF (E) for 5 min or hormone-stripped cells were stimulated with 10 nM estrogen (E2) or 100 nM progesterone (P4) for 24 hr with/without 10 μM Iressa (Ir) pre-treatment for 1 hr. Whole cell lysates were used for IP/IB analysis with antibodies indicated. […] 24 hr post-transfection, serum-starved MCF7 were stimulated with 50 ng/ml EGF (E) for 5 min or hormone-stripped cells were stimulated with 10 nM Estrogen (E2) or 100 nM Progesterone (P4) for 24 hr. Whole cell lysates were used for IP/IB analysis with antibodies indicated. “O” denotes “untreated/vehicle-treated”
For all experiments involving estrogen/progesterone (Sigma), MCF7 and T47D were cultured in Phenol-Red Free RPMI1640 (Sigma) containing 5% Charcoal-dextran Stripped FBS (Hyclone) for at least 2 days before stimulation. […] Fresh hormone/drug was replenished every day for treatment that last for more than 1 day.
MCF7, MDA-MB231, T47D, HeLa and MCF10A were from American Type Culture Collection. […]
The next assay deals with ERα. Kind of assay: ERE-Luciferase reporter assay in MCF7. Conditions: MCF7; 10 nM E2 24 hr; 1 hr pretreatment with Iressa. On the procedure:
(§1) A: Hormone-stripped MCF7 or T47D were co-transfected with vector, WBP2-WT or WBP2-Y192-231F mutant and ERE/PRE-Luciferase reporter constructs. Cells were either left alone or stimulated with (a) 50 ng/ml EGF for 5 min, (b) 10 nM E2/100 nM P4 for 24 hr, (c) E2/P4 and EGF in the absence or presence of 1 hr pretreatment with 100 μM Iressa(Ir). ERα/PR-transactivated luciferase activities in various conditions were then assayed. **P<0.01, ***P<0.001, Student's t-test (2-tailed). B: T47D were hormone-stripped and stimulated with 10 nM E2 for the indicated time (0-24 hr) in the absence and presence of 1 hr pretreatment with 10 μM Iressa(k). C: WT-WBP2 or Y192-231F mutant-transfected T47D were hormone stripped followed by 24 hr stimulation with 10 nM E2. For both experiments B and C, cells were then harvested for subcellular fractionation into nuclear and cytoplasmic fractions, which were used for IB/IP analysis with antibodies indicated. Histone 2A and GADPH were used as nuclear and cytoplasmic marker respectively. […] ERE (Top panel)/PR (Bottom panel)-transactivated luciferase activities in various conditions were then assayed analyzed in relative to vehicle-treated vector control. **P<0.01, ***P<0.001, Student's t-test (2-tailed). […] ERα-transactivated luciferase activities in various conditions were then assayed analyzed in relative to vehicle-treated vector control. […]

A further assay has as its system PR. Kind of assay: PRE-Luciferase reporter assay in T47D. The following applies: 100 nM P4 24 hr, 1 hr pretreatment with Iressa. How it is done:
as §1
In general terms: Reporter assays use an easily measured gene product as a stand-in for the process of interest.

Assay [2] has as its system WBP2. The assay can be described thus: Subcellular fractionation of T47D, nuclear WBP2 upon estrogen stimulation. The following applies: 10 nM E2 0-24 hr, 1 hr pretreatment with 10 μM Iressa. On the procedure: as §1

Molecules are shown by their SMILES.

`COc1cc2ncnc(Nc3ccc(F)c(Cl)c3)c2cc1OCCCN1CCOCC1` [Iressa]: the “estrogen/progesterone-induced WBP2 phosphorylation” value in the assay on WBP2 [1] is “Significant abolishment”. The “estrogen-induced coactivator activity of WBP2 (ERα reporter)” value with ERα was “abolished”. Besides, in the assay on PR, the “progesterone-induced coactivator activity of WBP2 (PR reporter)” value is given as “abolished”. Moreover, in the assay on WBP2 [2], the “nuclear WBP2 upon estrogen stimulation” value is listed as “reduced”.
